Results as given in US7897602B2, “Indolinone compounds as kinase inhibitors” (Development Center for Biotechnology, priority 2009, dated 2011).

Columns and labels:
Assay type in all cases: biochemical
VEGFR2 kinase = target: T1, VEGFR2 kinase (Homo sapiens, UniProt P35968); assay: VEGFR2 kinase assay (33P incorporation into Poly(Glu-Tyr)); settings: 500 nM test compound; read-out: Inhibition at 500 nM (%) VEGFr-2
T1 construct: recombinant N-terminal 6×His-tagged VEGFR2 kinase domain construct expressed by baculovirus; 6xHis (N); made in house
T1 sequence (P35968 834-1162 limits assumed): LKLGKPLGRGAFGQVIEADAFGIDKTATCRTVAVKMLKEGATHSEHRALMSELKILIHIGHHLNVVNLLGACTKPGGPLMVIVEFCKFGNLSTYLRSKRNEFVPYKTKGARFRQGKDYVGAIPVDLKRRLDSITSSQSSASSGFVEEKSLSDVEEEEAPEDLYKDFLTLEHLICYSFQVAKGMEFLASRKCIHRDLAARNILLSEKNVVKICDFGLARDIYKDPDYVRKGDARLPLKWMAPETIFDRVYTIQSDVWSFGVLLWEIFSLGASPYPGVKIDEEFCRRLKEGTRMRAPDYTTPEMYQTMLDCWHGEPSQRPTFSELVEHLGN
Method in brief: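 Recombinant baculovirus-expressed N-terminal His6-tagged VEGFR2 kinase domain (6.25 ng) phosphorylated poly(Glu-Tyr) 4:1 with 100 μM ATP plus [33P]-γ-ATP in MOPS pH 7.0, 30 °C, 30 min. Test compound was at 500 nM (4% DMSO). Filter-retained radioactivity relative to DMSO control gave % inhibition.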

PDGFR-β kinase = target: T2, PDGFR-β kinase (Homo sapiens, UniProt P09619); assay: PDGFR-β kinase assay (33P incorporation into Poly(Glu-Tyr)); settings: 500 nM test compound
T2 construct: recombinant N-terminal 6×His-tagged PDGFR-β kinase domain construct expressed by baculovirus; 6xHis (N); made in house
T2 sequence (P09619 600-962 limits assumed): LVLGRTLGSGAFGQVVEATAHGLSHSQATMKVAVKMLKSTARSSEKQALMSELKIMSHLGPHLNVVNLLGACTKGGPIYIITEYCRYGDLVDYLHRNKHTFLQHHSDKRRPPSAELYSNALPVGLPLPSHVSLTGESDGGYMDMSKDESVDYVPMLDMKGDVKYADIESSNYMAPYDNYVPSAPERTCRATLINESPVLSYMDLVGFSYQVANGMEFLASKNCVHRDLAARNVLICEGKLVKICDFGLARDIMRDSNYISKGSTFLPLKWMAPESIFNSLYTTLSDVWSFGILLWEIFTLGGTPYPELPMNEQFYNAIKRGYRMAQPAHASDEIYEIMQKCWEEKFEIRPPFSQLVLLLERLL
Method in brief: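 His-tagged PDGFR-β kinase domain (55 ng) with Poly(Glu-Tyr) 4:1, 30 μM ATP plus [33P]-γ-ATP, pH 7.0 MnCl2 buffer, and 500 nM compound for 30 min at 30° C. Filter-bound radioactivity counted; inhibition computed relative to DMSO control.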

c-Met kinase = target: T3, c-Met kinase (Homo sapiens, UniProt P08581); assay: c-Met kinase assay (33P incorporation into Poly(Glu-Tyr)); settings: 500 nM test compound
T3 construct: recombinant N-terminal 6×His-tagged c-Met kinase domain construct expressed from baculovirus; 6xHis (N); made in house
T3 sequence (P08581 1078-1345 limits assumed): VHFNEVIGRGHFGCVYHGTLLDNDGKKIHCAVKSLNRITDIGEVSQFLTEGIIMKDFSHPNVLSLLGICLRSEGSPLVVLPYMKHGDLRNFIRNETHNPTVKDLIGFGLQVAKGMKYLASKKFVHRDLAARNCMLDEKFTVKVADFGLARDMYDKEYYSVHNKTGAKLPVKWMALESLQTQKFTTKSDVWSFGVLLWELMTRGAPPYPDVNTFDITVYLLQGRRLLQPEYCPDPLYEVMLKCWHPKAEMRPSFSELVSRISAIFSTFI
Method in brief: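 Single-concentration test (500 nM compound) at 30° C for 30 min, pH 7.0 MOPS buffer with 100 μM ATP and [33P]-γ-ATP. Enzyme was baculovirus-expressed 6×His c-Met kinase domain (5 ng), substrate Poly(Glu-Tyr) 4:1. Inhibition percentage derived from filter-bound counts relative to DMSO control.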

inhibition at 0.5 µM (VEGFR2 kinase) [%]	inhibition at 0.5 µM (PDGFR-β kinase) [%]	inhibition at 0.5 µM (c-Met kinase) [%]	SMILES
52.2	22	22.3	C=CS(=O)(=O)c1ccc2c(c1)/C(=C/c1[nH]c3c(c1CCC(=O)O)C(=O)CCC3)C(=O)N2 [DCB-70115, (Z)-5-vinylsulfonyl-3-((3-carboxyethyl-4-oxo-4,5,6,7-tetrahydro-1H-indol-2-yl)methylene)indolin-2-one]
47.9	11.2	38.1	CCS(=O)(=O)c1ccc2c(c1)/C(=C/c1[nH]c3c(c1CCC(=O)O)C(=O)CCC3)C(=O)N2 [DCB-70116, (Z)-5-ethylsulfonyl-3-((3-carboxyethyl-4-oxo-4,5,6,7-tetrahydro-1H-indol-2-yl)methylene)indolin-2-one]
43.3	8.9	41.4	CNS(=O)(=O)c1ccc2c(c1)/C(=C/c1[nH]c3c(c1CCC(=O)N1CCN(C)CC1)C(=O)CCC3)C(=O)N2 [DCB-70117]
33.9	8.3	31.8	CCS(=O)(=O)Nc1ccc2c(c1)/C(=C/c1[nH]c3c(c1CCC(=O)O)C(=O)CCC3)C(=O)N2 [DCB-70119, (Z)-5-ethylsulfonamido-3-((3-carboxyethyl-4-oxo-4,5,6,7-tetrahydro-1H-indol-2-yl)methylene)indolin-2-one]
17.6	7.6	10	CN1CCN(C(=O)CCc2c(/C=C3\C(=O)Nc4ccc(S(=O)(=O)N5CCCC5)cc43)[nH]c3c2C(=O)CCC3)CC1 [DCB-70120, (Z)-3-((3-(3-(4-methylpiperazin-l-yl)-3-oxopropyl)-4-oxo-4,5,6,7-tetrahydro-1H-indol-2-yl)methylene)-5-(pyrrolidin-1-ylsulfonyl)indolin-2-one]
19.6	16.9	-6.7	CN(C)S(=O)(=O)c1ccc2c(c1)/C(=C/c1[nH]c3c(c1CCC(=O)O)C(=O)CCC3)C(=O)N2 [DCB-70121, (Z)-5-(N,N-dimethylsulfamoyl)-3-((3-carboxyethyl-4-oxo-4,5,6,7-tetrahydro-1H-indol-2-yl)methylene)indolin-2-one]
83.4	78.2	2.9	O=C1Nc2ccc(F)cc2/C1=C/c1[nH]c2c(c1CCC(=O)N1CCOCC1)C(=O)CCC2 [DCB-70125, (Z)-5-fluoro-3-((3-(3-morpholino-3-oxopropyl)-4-oxo-4,5,6,7-tetrahydro-1H-indol-2-yl)methylene)indolin-2-one]

The next lines start with the compound.

SMILES	inhibition at 0.5 µM (VEGFR2 kinase) [%]	inhibition at 0.5 µM (PDGFR-β kinase) [%]	inhibition at 0.5 µM (c-Met kinase) [%]
CCOC(=O)CCc1c(/C=C2\C(=O)Nc3ccc(NS(=O)(=O)CC)cc32)[nH]c2c1C(=O)CCC2 [DCB-70118, (Z)-5-ethylsulfonamido-3-((3-(3-ethoxy-3-oxopropyl)-4-oxo-4,5,6,7-tetrahydro-1H-indol-2-yl)methylene)indolin-2-one]	51.9	16.1	50.9
CCOC(=O)CCc1c(/C=C2\C(=O)Nc3cc(F)ccc32)[nH]c2c1C(=O)CCC2 [DCB-70122, (Z)-6-fluoro-3-((3-(3-ethoxy-3-oxopropyl)-4-oxo-4,5,6,7-tetrahydro-1H-indol-2-yl)methylene)indolin-2-one]	84	64.3	19.1
O=C(O)CCc1c(/C=C2\C(=O)Nc3cc(F)ccc32)[nH]c2c1C(=O)CCC2 [DCB-70123, (Z)-6-fluoro-3-((3-carboxyethyl-4-oxo-4,5,6,7-tetrahydro-1H-indol-2-yl)methylene)indolin-2-one]	90.8	67.2	8.3
CCN(CC)C(=O)CCc1c(/C=C2\C(=O)Nc3ccc(F)cc32)[nH]c2c1C(=O)CCC2 [DCB-70124, (Z)-N,N-diethyl-3-(2-((5-fluoro-2-oxoindolin-3-ylidene)methyl)-4-oxo-4,5,6,7-tetrahydro-1H-indol-3-yl)propanamide]	72.5	64.3	-0.8
CCOC(=O)CCc1c(/C=C2\C(=O)Nc3cc(-c4ccc5c(c4)OCO5)ccc32)[nH]c2c1C(=O)CCC2 [DCB-70128, (Z)-ethyl 3-(2-((6-(benzo[d][1,3]dioxol-5-yl)-2-oxoindolin-3-ylidene)methyl)-4-oxo-4,5,6,7-tetrahydro-1H-indol-3-yl)propanoate]	19.3	9	12.5
CCOC(=O)CCc1c(/C=C2\C(=O)Nc3ccc(NC(=O)Nc4cccc5ccccc45)cc32)[nH]c2c1C(=O)CCC2 [DCB-70129, (Z)-ethyl 3-(2-((5-(3-naphthalen-1-ylureido)-2-oxoindolin-3-ylidene)methyl)-4-oxo-4,5,6,7-tetrahydro-1H-indol-3-yl)propanoate]	88	1.4	5
CCOC(=O)CCc1c(/C=C2\C(=O)Nc3cc(Br)ccc32)[nH]c2c1C(=O)CCC2 [DCB-70130, (Z)-ethyl 3-(2-((6-bromo-2-oxoindolin-3-ylidene)methyl)-4-oxo-4,5,6,7-tetrahydro-1H-indol-3-yl)propanoate]	69.8	84.9	4.2
CCOC(=O)CCc1c(/C=C2\C(=O)Nc3ccc(NCc4ccccc4)cc32)[nH]c2c1C(=O)CCC2 [DCB-70131, (Z)-ethyl 3-(2-((5-(benzylamino)-2-oxoindolin-3-ylidene)methyl)-4-oxo-4,5,6,7-tetrahydro-1H-indol-3-yl)propanoate]	65.9	40.8	-2.1
O=C(O)CCc1c(/C=C2\C(=O)Nc3ccc(NCc4ccccc4)cc32)[nH]c2c1C(=O)CCC2 [DCB-70132, (Z)-3-(2-((5-(benzylamino)-2-oxoindolin-3-ylidene)methyl)-4-oxo-4,5,6,7-tetrahydro-1H-indol-3-yl)propanoic acid]	15.8	29.3	13.7
O=C(O)CCc1c(/C=C2\C(=O)Nc3cc(Br)ccc32)[nH]c2c1C(=O)CCC2 [DCB-70133, (Z)-3-(2-((6-bromo-2-oxoindolin-3-ylidene)methyl)-4-oxo-4,5,6,7-tetrahydro-1H-indol-3-yl)propanoic acid]	54.2	8.3	3.3
CCOC(=O)CCc1c(/C=C2\C(=O)Nc3ccc(NC(=O)Nc4ccccc4)cc32)[nH]c2c1C(=O)CCC2 [DCB-70134, (Z)-ethyl 3-(4-oxo-2-((2-oxo-5-(3-phenylureido)indolin-3-ylidene)methyl)-4,5,6,7-tetrahydro-1H-indol-3-yl)propanoate]	20.7	24	-0.3
CCOC(=O)CCc1c(/C=C2\C(=O)Nc3ccc(NC(=O)Nc4ccc(Br)cc4)cc32)[nH]c2c1C(=O)CCC2 [DCB-70135, (Z)-ethyl 3-(2-((5-(3-(4-bromophenyl)ureido)-2-oxoindolin-3-ylidene)methyl)-4-oxo-4,5,6,7-tetrahydro-1H-indol-3-yl)propanoate]	44.6	12	-3.7
